The text below walks through data of patent US20110136842A1, “Substituted Dihydroisoquinolinone and Isoquinolinedione Derivatives as Calcium Channel Blockers” (priority 2008, published 2011).

Structures are written as SMILES.

T1 sequence (Q00975 whole entry): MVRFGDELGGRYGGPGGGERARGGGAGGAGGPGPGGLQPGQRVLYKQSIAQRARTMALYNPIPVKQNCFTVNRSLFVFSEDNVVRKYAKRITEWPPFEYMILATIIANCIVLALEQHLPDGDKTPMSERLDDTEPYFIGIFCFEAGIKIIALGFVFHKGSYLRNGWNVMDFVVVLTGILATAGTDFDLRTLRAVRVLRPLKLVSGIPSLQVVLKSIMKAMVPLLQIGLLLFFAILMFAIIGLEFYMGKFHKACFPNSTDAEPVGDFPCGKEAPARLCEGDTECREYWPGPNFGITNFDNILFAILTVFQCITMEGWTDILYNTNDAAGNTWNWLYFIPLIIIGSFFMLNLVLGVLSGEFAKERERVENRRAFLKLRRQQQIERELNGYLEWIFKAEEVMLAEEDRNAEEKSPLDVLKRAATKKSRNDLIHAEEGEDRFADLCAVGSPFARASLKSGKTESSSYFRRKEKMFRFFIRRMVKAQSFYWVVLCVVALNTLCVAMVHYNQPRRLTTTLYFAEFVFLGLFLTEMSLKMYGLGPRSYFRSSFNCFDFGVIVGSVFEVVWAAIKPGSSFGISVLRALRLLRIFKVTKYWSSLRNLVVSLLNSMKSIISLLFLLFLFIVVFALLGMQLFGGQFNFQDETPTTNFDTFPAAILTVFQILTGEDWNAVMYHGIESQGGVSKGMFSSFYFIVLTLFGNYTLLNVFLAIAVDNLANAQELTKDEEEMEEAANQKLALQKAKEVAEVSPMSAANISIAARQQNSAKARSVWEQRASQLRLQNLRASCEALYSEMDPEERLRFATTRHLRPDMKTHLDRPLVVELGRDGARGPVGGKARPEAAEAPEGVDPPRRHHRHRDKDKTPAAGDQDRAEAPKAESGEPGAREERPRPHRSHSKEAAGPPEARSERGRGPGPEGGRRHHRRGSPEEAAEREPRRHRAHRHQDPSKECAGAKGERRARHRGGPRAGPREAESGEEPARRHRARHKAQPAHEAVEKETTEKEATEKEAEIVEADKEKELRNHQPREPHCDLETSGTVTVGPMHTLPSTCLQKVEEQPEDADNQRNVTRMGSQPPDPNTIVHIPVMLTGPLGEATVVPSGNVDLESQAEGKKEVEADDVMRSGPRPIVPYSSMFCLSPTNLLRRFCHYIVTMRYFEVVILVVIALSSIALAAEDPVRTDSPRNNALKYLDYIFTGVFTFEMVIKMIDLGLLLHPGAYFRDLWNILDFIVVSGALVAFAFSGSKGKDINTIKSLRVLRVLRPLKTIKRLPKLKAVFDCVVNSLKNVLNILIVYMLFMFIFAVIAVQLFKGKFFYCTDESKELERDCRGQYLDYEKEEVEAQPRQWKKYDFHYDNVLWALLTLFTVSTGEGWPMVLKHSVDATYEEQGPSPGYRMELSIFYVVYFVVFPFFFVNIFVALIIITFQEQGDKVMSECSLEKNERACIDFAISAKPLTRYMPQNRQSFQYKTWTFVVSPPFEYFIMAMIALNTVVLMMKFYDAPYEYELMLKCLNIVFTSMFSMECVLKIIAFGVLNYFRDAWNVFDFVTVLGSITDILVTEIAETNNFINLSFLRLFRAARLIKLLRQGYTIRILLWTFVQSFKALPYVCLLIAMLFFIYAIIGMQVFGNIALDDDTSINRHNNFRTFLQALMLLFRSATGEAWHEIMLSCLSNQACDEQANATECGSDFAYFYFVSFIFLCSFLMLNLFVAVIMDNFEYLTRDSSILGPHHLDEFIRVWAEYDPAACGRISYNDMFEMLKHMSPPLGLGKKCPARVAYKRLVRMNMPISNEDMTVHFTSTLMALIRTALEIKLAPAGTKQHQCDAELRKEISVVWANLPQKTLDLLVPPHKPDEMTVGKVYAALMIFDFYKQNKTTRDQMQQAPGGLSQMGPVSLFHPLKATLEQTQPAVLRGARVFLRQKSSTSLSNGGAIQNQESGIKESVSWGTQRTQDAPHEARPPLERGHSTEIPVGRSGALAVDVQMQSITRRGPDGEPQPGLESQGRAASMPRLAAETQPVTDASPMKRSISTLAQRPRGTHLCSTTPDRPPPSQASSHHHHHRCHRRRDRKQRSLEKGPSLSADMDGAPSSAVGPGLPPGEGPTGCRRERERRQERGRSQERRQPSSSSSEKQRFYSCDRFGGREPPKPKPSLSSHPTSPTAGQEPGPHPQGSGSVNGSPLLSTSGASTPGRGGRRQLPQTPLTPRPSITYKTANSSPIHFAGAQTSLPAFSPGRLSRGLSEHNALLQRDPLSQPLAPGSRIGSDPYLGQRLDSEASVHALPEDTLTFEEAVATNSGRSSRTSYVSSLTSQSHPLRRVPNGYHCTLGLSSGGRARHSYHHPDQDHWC

The assay concerns the target T1, Human Cav2.2 channels (Homo sapiens, UniProt Q00975).
T1 construct: expressed in transfected cells
In words: Fluorescent assay for Cav2.2 channels using potassium depolarization to initiate channel opening. The class given is cell-based. As to conditions: assay of Example 1 in the presence of 30 mM potassium (inactivated channel state). The source says:
Human Cav2.2 channels were stably expressed in HEK293 cells along with alpha2-delta and beta subunits of voltage-gated calcium channels. An inwardly rectifying potassium channel (Kir2.3) was also expressed in these cells to allow more precise control of the cell membrane potential by extracellular potassium concentration. At low bath potassium concentration, the membrane potential is relatively negative, and is depolarized as the bath potassium concentration is raised. In this way, the bath potassium concentration can be used to regulate the voltage-dependent conformations of the channels. Compounds are incubated with cells in the presence of low (4 mM) potassium or elevated (12, 25 or 30 mM) potassium to determine the affinity for compound block of resting (closed) channels at 4 mM potassium or affinity for block of open and inactivated channels at 12, 25 or 30 mM potassium. After the incubation period, Cav2.2 channel opening is triggered by addition of higher concentration of potassium (70 mM final concentration) to further depolarize the cell. The degree of state-dependent block can be estimated from the inhibitory potency of compounds after incubation in different potassium concentrations.
Calcium influx through Cav2.2 channels is determined using a calcium-sensitive fluorescent dye in combination with a fluorescent plate reader. Fluorescent changes were measured with either a VIPR (Aurora Instruments) or FLIPR (Molecular Devices) plate reader.
• 1. Seed cells in Poly-D-Lysine Coated 96- or 384-well plate and keep in a 37° C.-10% CO2 incubator overnight • 2. Remove media, wash cells with 0.2 mL (96-well plate) or 0.05 mL (384-well plate) Dulbecco's Phosphate Buffered Saline (D-PBS) with calcium & magnesium (Invitrogen; 14040) • 3. […] Read cell plate on VIPR instrument, Excitation=480 nm, Emission=535 nm • 9. With VIPR continuously reading, add 0.1 mL (96-well plate) or 0.03 mL (384-well plate) of Depolarization Buffer, which is 2× the final assay concentration, to the cell plate.
The IC50 is the concentration that inhibits the measured activity by half. As to `Cn1cnc(N2Cc3ccc(-c4cccc(OCC(F)(F)F)c4)cc3C(C)(Cc3cc(F)cc(F)c3F)C2=O)c1` (stereo not drawn) [Example 3, 4-methyl-2-(1-methyl-1H-imidazol-4-yl)-4-(2,3,5-trifluorobenzyl)-6-[3-(2,2,2-trifiuoroethoxy)phenyl]-1,4-dihydroisoquinolin-3(2H)-one], the IC50 was determined as 20 nM.
As for `CC1(Cc2cc(F)cc(F)c2F)C(=O)NC(=O)c2ccc(-c3cccc(OCC(F)(F)F)c3)cc21` (stereo not drawn) [Example 2, 4-methyl-4-(2,3,5-trifluorobenzyl)-6-[3-(2,2,2-trifluoroethoxy)phenyl]isoquinoline-1,3(2H,4H)-dione], the IC50 is 260 nM.
In the case of `CC1(Cc2cc(F)cc(F)c2F)C(=O)NCc2ccc(-c3cccc(OCC(F)(F)F)c3)cc21` (stereo not drawn) [Example 1, 4-methyl-4-(2,3,5-trifluorobenzyl)-6-[3-(2,2,2-trifiuoroethoxy)phenyl]-1,4-dihydroisoquinolin-3(2H)-one] it was 230 nM.
